Experimental data reported in publication PMC11469372, “Plasmodium SEY1 is a novel druggable target that contributes to imidazolopiperazine mechanism of action” (Research Square, 2024).

Assays:
[1] = target: T1, PvSEY1 (Plasmodium vivax SEY1) (Plasmodium vivax, UniProt A5K168); experiment: GTPase assay (EnzChek free phosphate) at […] GNF179; also destabilized in lysate thermal shift assay; format: biochemical
T1 construct: Full-length PvSEY1-myc-His from E. coli, Ni-NTA eluate
T1 sequence (A5K168 1-889): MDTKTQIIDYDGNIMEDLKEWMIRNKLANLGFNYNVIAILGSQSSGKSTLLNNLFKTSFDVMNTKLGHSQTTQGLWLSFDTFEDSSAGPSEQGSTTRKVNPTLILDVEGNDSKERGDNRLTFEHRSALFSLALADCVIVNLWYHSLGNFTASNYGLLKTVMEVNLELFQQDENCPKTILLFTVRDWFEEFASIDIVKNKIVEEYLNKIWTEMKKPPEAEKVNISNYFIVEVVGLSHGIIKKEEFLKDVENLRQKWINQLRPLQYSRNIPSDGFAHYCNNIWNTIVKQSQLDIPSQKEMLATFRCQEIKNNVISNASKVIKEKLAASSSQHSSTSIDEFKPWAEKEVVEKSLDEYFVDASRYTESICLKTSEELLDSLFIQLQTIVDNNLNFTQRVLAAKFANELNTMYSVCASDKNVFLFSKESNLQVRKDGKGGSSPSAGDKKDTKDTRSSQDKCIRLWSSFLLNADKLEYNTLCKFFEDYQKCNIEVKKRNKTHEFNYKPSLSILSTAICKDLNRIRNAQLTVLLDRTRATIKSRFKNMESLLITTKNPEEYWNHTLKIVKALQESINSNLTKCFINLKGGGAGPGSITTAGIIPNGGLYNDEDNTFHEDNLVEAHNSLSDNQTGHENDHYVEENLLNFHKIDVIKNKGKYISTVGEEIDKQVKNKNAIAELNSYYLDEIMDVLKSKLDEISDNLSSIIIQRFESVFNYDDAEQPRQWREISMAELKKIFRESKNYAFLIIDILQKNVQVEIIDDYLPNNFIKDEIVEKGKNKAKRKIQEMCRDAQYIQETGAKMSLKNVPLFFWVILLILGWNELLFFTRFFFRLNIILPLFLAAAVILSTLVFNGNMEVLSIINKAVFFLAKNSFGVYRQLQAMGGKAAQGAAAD

PfSTOML = target: T2, PfSTOML (Plasmodium falciparum, UniProt O77376); experiment: proteomic affinity chromatography with GNF179 beads, competition with free GNF179 (TMT MS/MS), parasite lysate; format: biochemical
T2 construct: gene PF3D7_0318100

HsFLOT2 = target: T3, HsFLOT2 (Homo sapiens, UniProt Q14254); experiment: proteomic affinity chromatography with GNF179 beads, competition with free GNF179 (TMT MS/MS), lysate; format: biochemical
T3 construct: gene FLOT2
T3 sequence (Q14254 2-428): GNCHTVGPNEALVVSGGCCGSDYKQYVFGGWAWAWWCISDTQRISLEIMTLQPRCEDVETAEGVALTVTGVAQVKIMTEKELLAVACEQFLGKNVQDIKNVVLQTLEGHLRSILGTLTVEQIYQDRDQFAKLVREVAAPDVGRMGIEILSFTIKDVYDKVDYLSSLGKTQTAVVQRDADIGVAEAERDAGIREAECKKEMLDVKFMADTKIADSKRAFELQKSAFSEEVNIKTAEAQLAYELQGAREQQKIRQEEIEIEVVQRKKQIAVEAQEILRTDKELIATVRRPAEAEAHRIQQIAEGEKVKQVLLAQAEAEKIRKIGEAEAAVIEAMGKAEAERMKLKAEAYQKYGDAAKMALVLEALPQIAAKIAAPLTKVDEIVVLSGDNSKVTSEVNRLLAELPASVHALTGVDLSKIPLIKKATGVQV

HsFLOT1 = target: T4, HsFLOT1 (Homo sapiens, UniProt O75955); experiment: as above; format: biochemical
T4 construct: gene FLOT1
T4 sequence (O75955 1-427): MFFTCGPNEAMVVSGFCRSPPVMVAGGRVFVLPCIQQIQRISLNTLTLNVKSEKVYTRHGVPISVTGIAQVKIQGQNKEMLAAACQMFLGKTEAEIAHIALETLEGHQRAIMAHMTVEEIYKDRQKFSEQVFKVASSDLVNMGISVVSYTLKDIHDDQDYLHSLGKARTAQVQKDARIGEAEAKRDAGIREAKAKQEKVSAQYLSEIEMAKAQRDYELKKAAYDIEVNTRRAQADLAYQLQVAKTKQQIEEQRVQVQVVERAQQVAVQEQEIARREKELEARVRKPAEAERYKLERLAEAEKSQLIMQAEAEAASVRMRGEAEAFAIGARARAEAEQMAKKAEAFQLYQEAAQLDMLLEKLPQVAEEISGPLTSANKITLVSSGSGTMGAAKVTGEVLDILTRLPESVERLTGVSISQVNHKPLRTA

[2] = target: T5, PkSEY1 (Plasmodium knowlesi SEY1) (Plasmodium knowlesi, UniProt B3LAJ9); experiment: surface plasmon resonance (Biacore […], NTA chip); format: binding
T5 construct: Full-length, His-tagged (recombinant)
T5 sequence (B3LAJ9 whole entry): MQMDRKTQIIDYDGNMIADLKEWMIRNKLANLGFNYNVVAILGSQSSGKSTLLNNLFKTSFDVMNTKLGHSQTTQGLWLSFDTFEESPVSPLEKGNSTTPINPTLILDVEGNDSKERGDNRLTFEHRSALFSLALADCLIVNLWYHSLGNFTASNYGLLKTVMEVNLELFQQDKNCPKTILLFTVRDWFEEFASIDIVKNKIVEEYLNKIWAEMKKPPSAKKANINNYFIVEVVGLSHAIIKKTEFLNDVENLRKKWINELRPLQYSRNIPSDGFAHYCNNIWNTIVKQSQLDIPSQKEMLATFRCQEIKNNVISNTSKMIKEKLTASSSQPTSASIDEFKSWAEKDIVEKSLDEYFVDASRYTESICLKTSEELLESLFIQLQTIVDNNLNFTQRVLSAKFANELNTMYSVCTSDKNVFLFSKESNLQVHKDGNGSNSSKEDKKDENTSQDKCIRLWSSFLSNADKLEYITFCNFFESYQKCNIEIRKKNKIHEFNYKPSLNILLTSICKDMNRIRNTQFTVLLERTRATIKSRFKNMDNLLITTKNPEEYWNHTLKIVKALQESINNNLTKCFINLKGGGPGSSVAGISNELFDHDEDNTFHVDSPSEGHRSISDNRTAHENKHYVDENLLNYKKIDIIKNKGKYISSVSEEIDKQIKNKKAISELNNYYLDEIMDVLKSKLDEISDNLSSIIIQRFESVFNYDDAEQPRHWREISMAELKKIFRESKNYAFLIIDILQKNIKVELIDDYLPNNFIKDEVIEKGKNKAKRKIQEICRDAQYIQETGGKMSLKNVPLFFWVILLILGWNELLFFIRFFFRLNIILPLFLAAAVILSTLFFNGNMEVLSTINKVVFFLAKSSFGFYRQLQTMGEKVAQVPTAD

T2 sequence (O77376 entry or part of it): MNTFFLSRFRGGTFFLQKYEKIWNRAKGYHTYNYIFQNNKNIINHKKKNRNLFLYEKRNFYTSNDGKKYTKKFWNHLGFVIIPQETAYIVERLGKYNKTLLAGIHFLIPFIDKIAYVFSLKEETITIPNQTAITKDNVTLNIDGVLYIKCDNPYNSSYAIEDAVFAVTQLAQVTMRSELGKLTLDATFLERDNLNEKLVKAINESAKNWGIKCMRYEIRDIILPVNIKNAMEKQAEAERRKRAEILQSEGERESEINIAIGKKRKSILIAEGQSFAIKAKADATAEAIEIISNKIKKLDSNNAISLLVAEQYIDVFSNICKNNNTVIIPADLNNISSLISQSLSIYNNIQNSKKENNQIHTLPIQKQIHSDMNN

Compound: CC1(C)c2nc(-c3ccc(F)cc3)c(Nc3ccc(Cl)cc3)n2CCN1C(=O)CN [GNF179]
- GTPase assay (EnzChek free phosphate) at 125 μM GNF179; also destabilized in lys [1]: These results indicate a reduction of PvSEY1 GTPase activity by GNF179.
- Kd (PfSTOML): 3170 nM
- Kd (HsFLOT2): 390 nM
- Kd (HsFLOT1): 340 nM
- Kd [2]: 144000 nM
